Data: the NIST ThermoML archive (doi:10.1016/j.fluid.2008.06.022)

Details: Liquid

CCCOCC(C)O (centres undefined) [1-propoxy-2-propanol]
Details	vapor or sublimation pressure [kPa]
298.15 K	0.341
303.15 K	0.481
308.15 K	0.672
313.15 K	0.937
318.15 K	1.271
323.15 K	1.707
328.15 K	2.256
333.15 K	2.967
338.15 K	3.839
343.15 K	4.951
348.15 K	6.29
353.15 K	7.963
358.15 K	9.95
363.15 K	12.38
368.15 K	15.27
373.15 K	18.7
378.15 K	22.65
383.15 K	27.42
388.15 K	32.8
393.15 K	39.18
398.15 K	46.38
403.15 K	54.75
408.15 K	64.1
413.15 K	74.98
